Test results as given in patent US20240051956A1, “SOS1 INHIBITORS AND USES THEREOF” (QILU REGOR THERAPEUTICS INC., priority 2020, published 2024).

Assays:
SOS1 and KRAS G12D = SOS1 and KRAS G12D (Homo sapiens (Human), UniProt Q07889); experiment: KRAS::SOS1 AlphaScreen Binding Assay; details: SOS1 (564-1049), KRAS G12D (1-169), GDP
From the text: a. KRAS::SOS1 AlphaScreen Binding Assay
Low IC50 values of given compounds are indicative of high potency of the SOS1 inhibitor compounds in this assay setting.
• GST-TEV-SOS1 (564-1049) and His-TEV-Avi-KRAS G12D (1-169) are purchased from Viva Biotech (Shanghai) Ltd. • GDP (Sigma, Cat. G7127) • AlphaLISA Glutathione Acceptor Beads (PerkinElmer, Cat. AL109C) • AlphaScreen Streptavidin Donor Beads (PerkinElmer, Cat. 6760002S) • Assay plates: ProxiPlate-384 Plus, White 384-shallow well Microplate (PerkinElmer, Cat. 6008280)
SOS1 inhibitor compounds are diluted to a final start concentration of […]. Serial dilutions of compounds are made using Tecan D300e Digital Dispenser in 9 concentrations with serial 1:3 dilutions. 100 nL of compound solution is transferred to the 384-well assay plate per well, covering a range between 1 μM and 0.15 nM minimum in duplicate. 10 nM (final assay concentration) KRAS G12D, 5 nM (final assay concentration) SOS1 and 10 μM (final assay concentration) GDP are mixed in assay buffer, and 5 μL of KRAS::SOS1 GDP mix is added into the assay plate to the 100 nL of compound solution (final dilution in the assay 1:100, final DMSO concentration 1%). After a 30 min incubation, AlphaLISA Glutathione Acceptor Beads and AlphaScreen Streptavidin Donor Beads are mixed in assay buffer at a concentration of 5 µg/mL (final assay concentration), and 5 μL of bead mix is added into the assay plate. Plates are kept at room temperature in a darkened incubator for 3 h. After a 3 h incubation, the signal is determined using Envision (PerkinElmer). The excitation wavelength is 680 nm, and emission 615 nm. IC50 values are calculated and analyzed using GraphPad Prism.

NCI-H358 = experiment: Cell proliferation assay, 3D, CellTiter-Glo 3D; type: cell-based, human; details: Homo sapiens, 72 h; NCI-H358 (KRAS G12C), 3D ultra-low attachment, 3 days; read-out: anit-prolif. H358 IC50
Procedure: b. Cell Proliferation Assay
Low IC50 values are indicative of high potency of the compounds in this assay setting.
Cell proliferation assay is performed in three-dimensional (3D) ultra-low conditions with the human cell line NCI-H358, a human non-small cell lung cancer (NSCLC) cell line with a KRAS G12C mutation.
• 96-well Clear Round Bottom Ultra-Low Attachment Microplate (Corning, Cat. 7007) • 96-well Flat Clear Bottom White Polystyrene TC-treated Microplates (Corning, Cat. 3610) • RPMI-1640 Medium (Gibco, Cat. 22400105) • Fetal Bovine Serum (FBS) (Gibco, Cat. 10099141C) • 0.25% Trypsin-EDTA (Gibco, Cat. 25200056) • Penicillin-Streptomycin (Gibco, Cat. 15140122) • CellTiter-Glo 3D Cell Viability Assay (Promega, Cat. G9683)
NCI-H358 cells (ATCC, Cat. CRL-5807) are grown in cell culture flasks using RPMI medium supplemented with 10% FBS. Cells are incubated at 37° C. and 5% C02 in a humidified atmosphere, with sub-cultivation performed twice a week. Cells are trypsinized, counted and plated in 96-well ultra-low adhesion plates for 3D cell viability determination. The day after plating, serial dilutions of SOS1 inhibitor compounds are made using Tecan D300e Digital Dispenser to evaluate a concentration-dependent effect on cell viability. The concentration of the test compounds covers a range between 5 μM and 0.76 nM with serial 1:3 dilutions in 9 concentrations. 0.5 μL serial dilutions of the compounds are added in duplicates. 3 days later, the CellTiter-Glo 3D Cell Viability Assay is used to measure cell viability effects of SOS1 inhibitor compounds in 3D format. Luminescent intensity is determined using Envision (PerkinElmer). Data is analyzed and IC50 values are calculated using GraphPad Prism.

SOS1 and KRAS G12D, sequence (Q07889 564-1049, stated change not applied): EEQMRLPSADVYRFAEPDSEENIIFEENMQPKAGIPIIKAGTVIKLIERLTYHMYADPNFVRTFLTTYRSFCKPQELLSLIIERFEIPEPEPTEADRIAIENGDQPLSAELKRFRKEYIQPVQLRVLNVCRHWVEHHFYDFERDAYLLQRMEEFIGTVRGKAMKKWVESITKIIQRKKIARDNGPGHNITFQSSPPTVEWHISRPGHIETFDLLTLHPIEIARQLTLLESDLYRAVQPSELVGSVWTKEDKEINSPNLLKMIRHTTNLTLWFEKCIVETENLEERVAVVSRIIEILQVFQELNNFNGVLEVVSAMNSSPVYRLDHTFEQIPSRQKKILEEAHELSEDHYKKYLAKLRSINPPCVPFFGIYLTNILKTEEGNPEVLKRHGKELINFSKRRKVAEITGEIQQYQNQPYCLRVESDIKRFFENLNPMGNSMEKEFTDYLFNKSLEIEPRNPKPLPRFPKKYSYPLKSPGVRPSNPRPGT

SMILES	IC50 (SOS1 and KRAS G12D)	IC50 (NCI-H358)
Cc1nc(N[C@H](C)c2cccc(C(F)F)c2F)c2cn(N3CCC(F)(F)CC3)c(=O)cc2n1 [Example 3]	≤ 15 nM	100 to 500 nM
Cc1nc(N[C@H](C)c2cccc(C(F)F)c2F)c2cn(N3CCN(C(=O)OC(C)(C)C)CC3)c(=O)cc2n1 [Example 4]	15 to 150 nM	100 to 500 nM
Cc1nc(N[C@H](C)c2cccc(C(F)F)c2F)c2cn(N3C[C@@H](C)O[C@@H](C)C3)c(=O)cc2n1 [Example 5]	≤ 15 nM	100 to 500 nM
COC1CCN(n2cc3c(N[C@H](C)c4cccc(C(F)F)c4F)nc(C)nc3cc2=O)CC1 [Example 7]	≤ 15 nM	100 to 500 nM
Cc1nc(N[C@H](C)c2cccc(C(F)F)c2F)c2cn(N3CC4CC3CO4)c(=O)cc2n1 (stereo partly shown) [Example 8]	≤ 15 nM	100 to 500 nM
Cc1nc(N[C@H](C)c2cccc(C(F)F)c2F)c2cn(N3CC4(COC4)C3)c(=O)cc2n1 [Example 9]	≤ 15 nM	100 to 500 nM
CC(=O)N1CCN(n2cc3c(N[C@H](C)c4cccc(C(F)F)c4F)nc(C)nc3cc2=O)CC1 [Example 11, 6-(4-acetylpiperazin-1-yl)-4-[[(1R)-1-[3-(difluoromethyl)-2-fluoro-phenyl]ethyl]amino]-2-methyl-pyrido[4,3-d]pyrimidin-7-one]	≤ 15 nM	500 to 1000 nM
Cc1nc(N[C@H](C)c2cccc(C(F)F)c2F)c2cn(N3CCN(C(C)C)CC3)c(=O)cc2n1 [Example 12, 4-[[(1R)-1-[3-(difluoromethyl)-2-fluoro-phenyl]ethyl]amino]-6-(4-isopropylpiperazin-1-yl)-2-methyl-pyrido[4,3-d]pyrimidin-7-one]	≤ 15 nM	100 to 500 nM
Cc1nc(N[C@H](C)c2cccc(C(F)F)c2F)c2cn(N3CCN(C(=O)CO)CC3)c(=O)cc2n1 [Example 13, 4-[[(1R)-1-[3-(difluoromethyl)-2-fluoro-phenyl]ethyl]amino]-6-[4-(2-hydroxyacetyl)piperazin-1-yl]-2-methyl-pyrido[4,3-d]pyrimidin-7-one]	≤ 15 nM	500 to 1000 nM
Cc1nc(N[C@H](C)c2cccc(C(F)F)c2F)c2cn(N3CCN(C(=O)CC#N)CC3)c(=O)cc2n1 [Example 14]	≤ 15 nM	500 to 1000 nM
Cc1nc(N[C@H](C)c2cccc(C(F)F)c2F)c2cn(N3CCN(c4ccc(C#N)cn4)CC3)c(=O)cc2n1 [Example 15, 6-[4-[4-[[(1R)-1-[3-(difluoromethyl)-2-fluoro-phenyl]ethyl]amino]-2-methyl-7-oxo-pyrido[4,3-d]pyrimidin-6-yl]piperazin-1-yl]pyridine-3-carbonitrile]	15 to 150 nM	≤ 100 nM
Cc1nc(N[C@H](C)c2cccc(C(F)F)c2F)c2cn(N(C)C)c(=O)cc2n1 [Example 34, 4-[[(1R)-1-[3-(difluoromethyl)-2-fluoro-phenyl]ethyl]amino]-6-(dimethylamino)-2-methyl-pyrido[4,3-d]pyrimidin-7-one]	≤ 15 nM	100 to 500 nM
Cc1nc(N[C@H](C)c2cccc(C(F)F)c2F)c2cn(N3CCOCC3)c(=O)c(-c3ccc(C(=O)O)nc3)c2n1 [Example 78]	≤ 15 nM	–
COC(=O)c1ccc(-c2c(=O)n(N3CCOCC3)cc3c(N[C@H](C)c4cccc(C(F)F)c4F)nc(C)nc23)cn1 [Example 79]	≤ 15 nM	–
Cc1nc(N[C@H](C)c2cccc(C(F)F)c2F)c2cn(N3CCOCC3)c(=O)c(-c3ccc(C(N)=O)nc3)c2n1 [Example 80]	≤ 15 nM	–
Cc1nc(N[C@H](C)c2cccc(C(F)F)c2F)c2cn(N3CCOCC3)c(=O)c(-c3ccn[nH]3)c2n1 [Example 81]	≤ 15 nM	–
Cc1nc(N[C@H](C)c2cccc(C(F)F)c2F)c2cn(N3CCOCC3)c(=O)c(-c3cnc4nccn4c3)c2n1 [Example 84]	≤ 15 nM	–
Cc1nc(N[C@H](C)c2cccc(C(F)F)c2F)c2cn(N3CCOCC3)c(=O)c(C3=CCS(=O)(=O)CC3)c2n1 [Example 85]	≤ 15 nM	–
Cc1nc(N[C@H](C)c2cccc(C(F)F)c2F)c2cn(-n3cnnc3)c(=O)c(F)c2n1 [Example 87]	150 to 1000 nM	–

The next lines start with the values.

IC50 (SOS1 and KRAS G12D)	IC50 (NCI-H358)	SMILES
≤ 15 nM	≤ 100 nM	Cc1nc(N[C@H](C)c2cccc(C(F)F)c2F)c2cn(N3CCCCC3)c(=O)cc2n1 [Example 2]
≤ 15 nM	≤ 100 nM	Cc1nc(N[C@H](C)c2cccc(C(F)F)c2F)c2cn(N3CCCOCC3)c(=O)cc2n1 [Example 6]
≤ 15 nM	> 1000 nM	Cc1nc(N[C@H](C)c2cccc(C(F)F)c2F)c2cn(N3CCNCC3)c(=O)cc2n1 [Example 10, 4-[[(1R)-1-[3-(difluoromethyl)-2-fluoro-phenyl]ethyl]amino]-2-methyl-6-piperazin-1-yl-pyrido[4,3-d]pyrimidin-7-one]
15 to 150 nM	100 to 500 nM	Cc1nc(N[C@H](C)c2cc(N)cc(C(F)(F)F)c2)c2cn(N3CCOCC3)c(=O)cc2n1 [Example 16, 4-[[(1R)-1-[3-amino-5-(trifluoromethyl)phenyl]ethyl]amino]-2-methyl-6-morpholino-pyrido[4,3-d]pyrimidin-7-one]
≤ 15 nM	500 to 1000 nM	Cc1nc(N[C@H](C)c2cccc(C(F)(F)CO)c2)c2cn(N3CCOCC3)c(=O)cc2n1 [Example 18]
≤ 15 nM	100 to 500 nM	Cc1nc(N[C@H](C)c2cccc(C(F)(F)F)c2F)c2cn(N3CCOCC3)c(=O)cc2n1 [Example 19]
≤ 15 nM	≤ 100 nM	Cc1nc(N[C@H](C)c2cccc(C(F)(F)F)c2)c2cn(N3CCOCC3)c(=O)cc2n1 [Example 20]
≤ 15 nM	≤ 100 nM	Cc1nc(N[C@H](C)c2cccc(C(F)F)c2C)c2cn(N3CCOCC3)c(=O)cc2n1 [Example 21]
150 to 1000 nM	> 1000 nM	Cc1nc(N[C@@H](C)c2cccc(C(F)F)c2C)c2cn(N3CCOCC3)c(=O)cc2n1 [Example 22]
> 1000 nM	–	Cc1nc(NC(C)C2CC2)c2cn(N3CCOCC3)c(=O)cc2n1 (stereo not shown) [Example 23]
15 to 150 nM	100 to 500 nM	CCC(Nc1nc(C)nc2cc(=O)n(N3CCOCC3)cc12)c1cccc(C(F)(F)F)c1 (stereo not shown) [Example 24]
15 to 150 nM	100 to 500 nM	Cc1nc(NC(C)c2cccc(C(F)F)c2)c2cn(N3CCOCC3)c(=O)cc2n1 (stereo not shown) [Example 25]
15 to 150 nM	–	Cc1nc(NCc2cccc(C(F)(F)F)c2)c2cn(N3CCOCC3)c(=O)cc2n1 [Example 26]
> 1000 nM	–	Cc1nc(NCc2ccc3cc[nH]c3c2)c2cn(N3CCOCC3)c(=O)cc2n1 [Example 27]
150 to 1000 nM	–	Cc1nc(NC(C)c2cc(C(F)F)cc(C(F)F)c2)c2cn(N3CCOCC3)c(=O)cc2n1 (stereo not shown) [Example 28]
≤ 15 nM	≤ 100 nM	Cc1nc(N[C@H](C)c2cccc(C(F)(F)F)c2F)c2cn(N3CCOCC3)c(=O)c(F)c2n1 [Example 31]
≤ 15 nM	≤ 100 nM	Cc1nc(N[C@H](C)c2cccc(C(F)(F)CO)c2)c2cn(N3CCOCC3)c(=O)c(F)c2n1 [Example 32]
≤ 15 nM	100 to 500 nM	Cc1nc(N[C@H](C)c2cccc(C(F)(F)F)c2)c2cn(N3CCOCC3)c(=O)c(F)c2n1 [Example 33]
≤ 15 nM	100 to 500 nM	Cc1nc(N[C@H](C)c2cccc(C(F)F)c2F)c2cn(N3CCCC3)c(=O)cc2n1 [Example 35]
≤ 15 nM	–	Cc1nc(N[C@H](C)c2cccc(C(F)(F)CO)c2)c2cn(N3CCOCC3)c(=O)c(-c3ccc(C#N)nc3)c2n1 [Example 82]
≤ 15 nM	–	Cc1nc(N[C@H](C)c2cc(N)cc(C(F)(F)F)c2)c2cn(N3CCOCC3)c(=O)c(-c3ccc(C#N)nc3)c2n1 [Example 83]
